This is an account of results in patent EP0397567A1, “Antitumor substance, process for its preparation and pharmaceutical compositions containing it” (RHONE-POULENC SANTE, priority 1989, dated 1990).

This assay is described as follows: antitumor properties (studies mentioned, no method described). As to conditions: qualitative statement compared with girolline; no test system, dose or model printed.

For the compound `NC[C@H](Cl)[C@H](O)c1c[nH]c(N)n1` (racemic) [racémique érythro], the propriétés antitumorales result was “totalement inactifs”.

For `NC[C@@H](Cl)[C@H](O)c1c[nH]c(N)n1` (racemic) [racémique thréo, amino-3 (amino-2 1H-imidazolyl-4)-1 chloro-2 propanol-1-(1RS,2RS)], the propriétés antitumorales result is reported as “conserve les propriétés antitumorales remarquables de la girolline”.
